We go through 33 compounds from ChEMBL document CHEMBL4834451, “Anti-chronic myeloid leukemia activity and quantitative structure-activity relationship of novel thiazole aminobenzamide derivatives” (Bioorg Med Chem Lett, 2021).

The test system of one assay is K562. Nature of the assay: Antiproliferative activity against human K562 cells by MTS assay. It is filed as functional, cell-based.
The subject of the next assay is L02. The assay is described as follows: Antiproliferative activity against human L02 cells by MTS assay. It is filed as cell-based. On the technique in general: Tetrazolium assays rely on reduction of a dye to a coloured formazan, in cell work by metabolically active cells.
A short description of assay [1]: Antiproliferative activity against imatinib-resistant human K562R cells by MTS assay. It is filed as functional, cell-based.
Another assay concerns BaF3. Nature of the assay: Antiproliferative activity against mouse BaF3 cells harbouring BCR-ABL T315I mutant by MTS assay. It is filed as cell-based.
Where [2] appears, read: K562, read-out: pIC50 (converted).

In the case of `CCc1sc(Nc2cccc(C(=O)NCC(=O)O)c2)nc1-c1ccccc1`, the IC50 in the assay with K562 is more than 100 µM; with L02, more than 100 µM; in assay [1] (K562, read-out: IC50), more than 100 µM.

Consider `Cc1sc(Nc2cccc(C(=O)NCC(=O)O)c2)nc1-c1ccc(F)cc1`, for which the IC50 with K562 is 87.8 µM; in the assay on L02 it was more than 100 µM; in assay [1] (K562, read-out: IC50) it was more than 100 µM; in the assay with BaF3, more than 64 µM.

In the case of `CCc1sc(Nc2cccc(C(=O)N[C@@H](Cc3ccccc3)C(C)=O)c2)nc1-c1ccccc1`, the IC50 in the assay on K562 is more than 100 µM; in the assay on L02, more than 100 µM; in assay [1] (K562, read-out: IC50), 17.2 µM; in assay [1] (setting [2]), 17.2 µM.

Take `Cc1sc(Nc2cccc(C(=O)N[C@@H](Cc3ccccc3)C(=O)O)c2)nc1-c1ccc(C(F)(F)F)cc1`: the IC50 in the assay on K562 is 44.1 µM; in the assay with L02, more than 100 µM; in assay [1] (K562, read-out: IC50), 78.1 µM; in assay [1] (setting [2]), 78.2 µM.

As to `Cc1ccc(NC(=O)c2ccc(CN3CCN(C)CC3)cc2)cc1Nc1nccc(-c2cccnc2)n1` [IMATINIB], the IC50 with K562 was 4.63 µM; with L02, more than 100 µM; in assay [1] (K562, read-out: IC50), more than 100 µM.

Take `Cc1sc(Nc2cccc(C(=O)NCC(=O)O)c2)nc1-c1ccc(C(F)(F)F)cc1`: the IC50 with K562 is 34.8 µM; in the assay on L02, more than 100 µM; in assay [1] (K562, read-out: IC50), more than 100 µM; in the assay with BaF3 it was more than 64 µM.

`CC(=O)CNC(=O)c1cccc(Nc2nc(-c3ccccc3)c(C)s2)c1`: the IC50 in the assay with K562 is more than 100 µM; in the assay on L02 it was more than 100 µM; in assay [1] (K562, read-out: IC50) it was more than 100 µM.

On to `CC(=O)[C@H](Cc1ccccc1)NC(=O)c1cccc(Nc2nc(-c3ccccc3)c(C)s2)c1`, for which the IC50 with K562 is 53.1 µM; with L02, more than 100 µM; in assay [1] (K562, read-out: IC50), 30.2 µM; in assay [1] (setting [2]), 30.2 µM.

As to `CCc1sc(Nc2cccc(C(=O)NCC(C)=O)c2)nc1-c1ccccc1`, the IC50 is 61.7 µM in the assay with K562; more than 100 µM in the assay with L02; 17.6 µM in assay [1] (K562, read-out: IC50); 17.6 µM in assay [1] (setting [2]).

Turning to `CCc1sc(Nc2cccc(C(=O)NCC(C)=O)c2)nc1-c1ccc(Cl)cc1`, the IC50 was more than 100 µM with K562; more than 100 µM in the assay on L02; more than 100 µM in assay [1] (K562, read-out: IC50).

As to `Cc1sc(Nc2cccc(C(=O)N[C@@H](Cc3ccccc3)C(=O)O)c2)nc1-c1ccc(Cl)cc1`, the IC50 is 51 µM in the assay on K562; more than 100 µM with L02; 48.1 µM in assay [1] (K562, read-out: IC50); 48.1 µM in assay [1] (setting [2]).

For the compound `CC(=O)CNC(=O)c1cccc(Nc2nc(-c3ccc(Cl)cc3)c(C)s2)c1`, the IC50 in the assay with K562 is more than 100 µM; in the assay on L02 it was more than 100 µM; in assay [1] (K562, read-out: IC50), more than 100 µM.

For `CC(=O)CNC(=O)c1cccc(Nc2nc(-c3ccc(F)cc3)c(C)s2)c1`, the IC50 with K562 was more than 100 µM; with L02, more than 100 µM; in assay [1] (K562, read-out: IC50), more than 100 µM.

As for `CC(=O)[C@H](Cc1ccccc1)NC(=O)c1cccc(Nc2nc(-c3ccc(Cl)cc3)c(C)s2)c1`, the IC50 in the assay on K562 is 51.4 µM; in the assay on L02, more than 100 µM; in assay [1] (K562, read-out: IC50), 11.3 µM; in assay [1] (setting [2]), 11.4 µM.

In the case of `Cc1sc(Nc2cccc(C(=O)NCC(=O)O)c2)nc1-c1ccc(O)cc1`, the IC50 is 71.8 µM in the assay with K562; more than 100 µM in the assay on L02; more than 100 µM in assay [1] (K562, read-out: IC50).

As to `CCc1sc(Nc2cccc(C(=O)N[C@@H](Cc3ccccc3)C(=O)O)c2)nc1-c1ccc(Cl)cc1`, the IC50 was more than 100 µM in the assay on K562; more than 100 µM in the assay with L02; more than 100 µM in assay [1] (K562, read-out: IC50).

`Cc1ccc(-c2nc(Nc3cccc(C(=O)N[C@@H](Cc4ccccc4)C(=O)O)c3)sc2C)cc1`: the IC50 with K562 is 48.8 µM; in the assay with L02, more than 100 µM; in assay [1] (K562, read-out: IC50) it was 63.4 µM; in assay [1] (setting [2]), 63.4 µM.

Turning to `Cc1sc(Nc2cccc(C(=O)N[C@@H](Cc3ccccc3)C(=O)O)c2)nc1-c1ccccc1`, the IC50 in the assay on K562 is 66 µM; in the assay with L02 it was more than 100 µM; in assay [1] (K562, read-out: IC50), 86.8 µM; in assay [1] (setting [2]), 86.9 µM.

As to `Cc1sc(Nc2cccc(C(=O)N[C@@H](Cc3ccccc3)C(=O)O)c2)nc1-c1ccc(O)cc1`, the IC50 in the assay on K562 is 68.9 µM; with L02 it was more than 100 µM; in assay [1] (K562, read-out: IC50), 62.9 µM; in assay [1] (setting [2]), 63 µM.

As to `CCc1sc(Nc2cccc(C(=O)NCC(=O)O)c2)nc1-c1ccc(Cl)cc1`, the IC50 in the assay with K562 was more than 100 µM; in the assay with L02 it was more than 100 µM; in assay [1] (K562, read-out: IC50) it was more than 100 µM.

On to `CCc1sc(Nc2cccc(C(=O)N[C@@H](Cc3ccccc3)C(C)=O)c2)nc1-c1ccc(Cl)cc1`, for which the IC50 in the assay with K562 is more than 100 µM; with L02 it was more than 100 µM; in assay [1] (K562, read-out: IC50), 15.9 µM; in assay [1] (setting [2]), 15.9 µM.

With `CC(=O)CNC(=O)c1cccc(Nc2nc(-c3ccc(C(F)(F)F)cc3)c(C)s2)c1`, the IC50 is 40.9 µM with K562; more than 100 µM in the assay on L02; 35.4 µM in assay [1] (K562, read-out: IC50); 35.4 µM in assay [1] (setting [2]).

As for `Cc1sc(Nc2cccc(C(=O)NCC(=O)O)c2)nc1-c1ccccc1`, the IC50 with K562 was 57.6 µM; with L02, more than 100 µM; in assay [1] (K562, read-out: IC50), 61.7 µM; in assay [1] (setting [2]) it was 61.7 µM.

In the case of `Cc1sc(Nc2cccc(C(=O)N[C@@H](Cc3ccccc3)C(=O)O)c2)nc1-c1ccc(F)cc1`, the IC50 in the assay on K562 is 79.5 µM; in the assay with L02 it was more than 100 µM; in assay [1] (K562, read-out: IC50), 41.3 µM; in assay [1] (setting [2]), 41.3 µM.

Consider `CC(=O)[C@H](Cc1ccccc1)NC(=O)c1cccc(Nc2nc(-c3ccc(C(F)(F)F)cc3)c(C)s2)c1`, for which the IC50 in the assay with K562 was 28.7 µM; with L02, more than 100 µM; in assay [1] (K562, read-out: IC50), 8.47 µM; in assay [1] (setting [2]), 8.47 µM; in the assay on BaF3, 19.8 µM.

On to `CC(=O)[C@H](Cc1ccccc1)NC(=O)c1cccc(Nc2nc(-c3ccc(F)cc3)c(C)s2)c1`, for which the IC50 in the assay with K562 was 28.6 µM; in the assay on L02, more than 100 µM; in assay [1] (K562, read-out: IC50) it was 12.8 µM; in assay [1] (setting [2]), 12.9 µM; with BaF3 it was 19.1 µM.

For the compound `CCc1sc(Nc2cccc(C(=O)N[C@@H](Cc3ccccc3)C(=O)O)c2)nc1-c1ccccc1`, the IC50 in the assay with K562 was 93.3 µM; in the assay with L02 it was more than 100 µM; in assay [1] (K562, read-out: IC50), 78 µM; in assay [1] (setting [2]) it was 78 µM.

`CC(=O)[C@H](Cc1ccccc1)NC(=O)c1cccc(Nc2nc(-c3ccc(O)cc3)c(C)s2)c1`: the IC50 was 8.32 µM with K562; more than 100 µM in the assay on L02; 7.31 µM in assay [1] (K562, read-out: IC50); 7.31 µM in assay [1] (setting [2]); 36.6 µM with BaF3.

Regarding `Cc1ccc(-c2nc(Nc3cccc(C(=O)NCC(=O)O)c3)sc2C)cc1`, the IC50 is more than 100 µM in the assay on K562; more than 100 µM with L02; more than 100 µM in assay [1] (K562, read-out: IC50).

For the compound `CC(=O)[C@H](Cc1ccccc1)NC(=O)c1cccc(Nc2nc(-c3ccc(C)cc3)c(C)s2)c1`, the IC50 in the assay with K562 was 83.6 µM; in the assay on L02, more than 100 µM; in assay [1] (K562, read-out: IC50), 14.7 µM; in assay [1] (setting [2]), 14.7 µM.

As to `CC(=O)CNC(=O)c1cccc(Nc2nc(-c3ccc(O)cc3)c(C)s2)c1`, the IC50 in the assay on K562 was 66.3 µM; in the assay on L02 it was more than 100 µM; in assay [1] (K562, read-out: IC50) it was 68.3 µM; in assay [1] (setting [2]), 68.2 µM; in the assay on BaF3 it was more than 64 µM.

In the case of `CC(=O)CNC(=O)c1cccc(Nc2nc(-c3ccc(C)cc3)c(C)s2)c1`, the IC50 in the assay on K562 was more than 100 µM; in the assay on L02 it was more than 100 µM; in assay [1] (K562, read-out: IC50), 50.2 µM; in assay [1] (setting [2]), 50.2 µM.

In the case of `Cc1sc(Nc2cccc(C(=O)NCC(=O)O)c2)nc1-c1ccc(Cl)cc1`, the IC50 in the assay with K562 was 60.5 µM; in the assay on L02, more than 100 µM; in assay [1] (K562, read-out: IC50), 71.5 µM; in assay [1] (setting [2]), 71.4 µM.
